Measurements published in publication PMC5511861, “DS16570511 is a small-molecule inhibitor of the mitochondrial calcium uniporter” (Cell Death Discovery, 2017).

Columns and labels:
[1] = system: Ca2+ uptake of pig heart mitochondria; assay: Ca2+ uptake assay using isolated pig heart mitochondria (atomic absorbance spectrometer); assay type: biochemical; conditions: 100 μM CaCl2; read-out: IC50, inhibition of Ca2+ uptake of pig heart mitochondria
Description: We then asked whether DS16570511 inhibits Ca^2+ uptake in isolated mitochondria from animal heart. An atomic absorbance spectrometer-based detection method was employed to analyze intramitochondrial Ca^2+ levels. We prepared freshly isolated mitochondria from pig heart, and the mitochondria were incubated with 100 μM CaCl2.
(a) Effect of RuR on Ca^2+ uptake of pig heart mitochondria. […] Data are mean with S.E.M. from three independent samples. (b) Inhibition rate of RuR or DS16570511 on Ca^2+ uptake of pig heart mitochondria. Inhibition 0 or 100% is defined as a value of Ca^2+-untreated mitochondria or Ca^2+-treated mitochondria, respectively. Data are mean with S.E.M. from three independent samples. (c) Inhibition rate of RuR or DS16570511 on Ca^2+ uptake of rat heart mitochondria. Data are mean with S.E.M./variation from three or two independent samples for DS16570511 or RuR, respectively.
Mitochondria were isolated by using the mitochondria isolation kit and then dissolved in the swelling buffer. The protein concentration of the mitochondrial solution was 5 mg/ml. Thirty minutes after application of CaCl2 (final concentration of 100 μM) to the solution, the mitochondria were collected by centrifugation (3000 g) at 4 °C. The pellets were resuspended in the swelling buffer containing 1 μM RuR. After collection of the mitochondria by centrifugation (3000 g), the pellets were dried and dissolved by 40 μl of sulfuric acid at 95 °C.

[2] = system: membrane potential of pig heart mitochondria; assay: Mitochondrial membrane potential assay (JC-10) in pig heart mitochondria; assay type: biochemical; conditions: JC-10, 5 min incubation
From the text: Next we analyzed the mechanism of action of DS16570511. The previous studies implicated two possible inhibitory mechanisms for the mitochondrial Ca^2+ uptake: (1) direct blockade of the calcium uniporter and (2) disruption of the membrane potential.[20],[21] Mitochondrial Ca^2+ uptake is mediated by electrical potential across the mitochondrial inner membrane, which is generated by the oxidative phosphorylation system. […] To examine effects on the mitochondrial membrane potential, fluorescent indicator JC-10 was used in mitochondria from pig heart.
(a) Effect of FCCP on Ca^2+ uptake of pig heart mitochondria. […] Relative membrane potential 0 or 100% is defined as value of 1 μM FCCP-treated mitochondria or vehicle-treated mitochondria, respectively. Data are mean with S.E.M. from three (a) or four (b) independent samples.
Pig heart mitochondria were prepared as described above and suspended in the swelling buffer containing 1 μM JC-10. The protein concentration of the solution was 5 mg/ml. Five minutes after incubation of the mitochondria with DS16570511 at room temperature, fluorescence intensities were measured by a FlexStation 3 (Molecular Devices, LLC, Sunnyvale, CA, USA) using the green channel (excitation/emission wavelength: 485/538 nm) or the red channel (excitation/emission wavelength: 485/612 nm).

MICU1 = molecular target: T1, MICU1 (Homo sapiens, UniProt Q9BPX6); assay: MICU1-dependent mitochondrial Ca2+ influx in HEK293A cells overexpressing human MICU1; assay type: cell-based; conditions: HEK293A cells overexpressing MICU1, serum-induced
T1 construct: expressed in transfected cells; host or cells: HEK293A cells, transient co-transfection with the mitochondria-targeted aequorin vector
T1 sequence (Q9BPX6 34-476): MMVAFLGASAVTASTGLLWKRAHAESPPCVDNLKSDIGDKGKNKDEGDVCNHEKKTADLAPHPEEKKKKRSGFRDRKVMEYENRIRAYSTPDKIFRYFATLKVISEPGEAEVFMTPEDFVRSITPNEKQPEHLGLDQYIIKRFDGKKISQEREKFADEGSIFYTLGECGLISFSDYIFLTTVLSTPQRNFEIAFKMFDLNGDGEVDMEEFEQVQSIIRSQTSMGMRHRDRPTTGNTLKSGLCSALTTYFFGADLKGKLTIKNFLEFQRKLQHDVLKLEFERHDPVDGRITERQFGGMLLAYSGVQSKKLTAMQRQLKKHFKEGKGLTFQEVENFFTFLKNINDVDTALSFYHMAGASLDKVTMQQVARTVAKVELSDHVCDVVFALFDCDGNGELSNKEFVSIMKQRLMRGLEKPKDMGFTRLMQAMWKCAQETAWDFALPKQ
From the text: Next, to investigate the molecular component of the mitochondrial calcium uniporter, MCU-dependent and MICU-dependent Ca^2+ influx were examined. […] The MCU-dependent increment of Ca^2+ influx was blocked by the DS16570511 pretreatment (Figure 5b). We then investigated the effects of the inhibitor on the regulatory subunit MICU1. Previous studies have shown that MICU1 facilitates mitochondrial Ca^2+ uptake through the presence of a high Ca^2+ level.[11],[22]
Figure 5 DS16570511 inhibits mitochondrial Ca^2+ influx by MCU or MICU1. (a) Effect of overexpression of MCU or MICU1 on mitochondrial Ca^2+ influx in HEK293A cells. (b) Effect of DS16570511 on MCU-dependent mitochondrial Ca^2+ uptake in HEK293A cells. (c) Effect of DS16570511 on MICU1-dependent mitochondrial Ca^2+ uptake in HEK293A cells. […]
In order to evaluate mitochondrial Ca^2+ uptake activity by MCU or MICU1, HEK293A cells were transiently transfected with the mitochondria-targeted aequorin vector and pcDNA3.1 vector containing human Mcu (NCBI Reference Sequence: NM_138357.2) or Micu1 (NM_001195518.1). One day after the transfection, the luminescence levels were measured as described above. MCU- or MICU1-dependent activity was calculated by subtracting the luminescence level of cells transfected with empty vector from that of cells expressing MCU or MICU1, respectively.

Cc1onc(-c2c(Cl)cccc2Cl)c1CNc1cccc(C(=O)c2cn(CCCC(=O)O)c3ccccc23)c1 [DS16570511]
IC50 [1]: 15 µM | effect on mitochondrial membrane potential [2]: not reduced | effect on MICU1-dependent activation of the uniporter (MICU1): blocked by DS16570511 in a dose-dependent manner
